Measurements taken from US12331068B2, “Compositions and methods for inhibiting CD73” (Peloton Therapeutics, Inc., priority 2018, dated 2025).

Experiments:
Human CD73 = molecular target: T1, Human CD73 (Homo sapiens, UniProt P21589); assay: CD73 Enzyme Assay (EnzChek PNP/MESG kinetic readout of AMP hydrolysis); type: biochemical; settings: 0.25 nM hCD73, 25 μM AMP; read-out: CD73 Enzyme Assay IC50
T1 construct: purchased R&D Systems; host or cells: CHO cells
T1 sequence (P21589 27-549): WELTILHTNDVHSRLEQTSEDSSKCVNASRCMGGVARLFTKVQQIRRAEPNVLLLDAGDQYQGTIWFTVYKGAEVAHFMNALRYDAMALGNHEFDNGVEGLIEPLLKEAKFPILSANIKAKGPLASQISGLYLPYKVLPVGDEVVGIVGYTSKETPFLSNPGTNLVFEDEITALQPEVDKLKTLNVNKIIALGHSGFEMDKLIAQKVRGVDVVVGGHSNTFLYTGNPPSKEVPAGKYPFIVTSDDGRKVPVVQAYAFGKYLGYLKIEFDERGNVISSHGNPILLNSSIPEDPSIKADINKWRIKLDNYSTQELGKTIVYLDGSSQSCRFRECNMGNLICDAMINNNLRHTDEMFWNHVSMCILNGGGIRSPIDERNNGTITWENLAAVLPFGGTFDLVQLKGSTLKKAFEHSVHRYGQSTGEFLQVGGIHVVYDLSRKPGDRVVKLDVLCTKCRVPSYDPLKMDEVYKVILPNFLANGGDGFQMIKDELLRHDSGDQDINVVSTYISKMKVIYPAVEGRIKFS
In short: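 Compounds tested as 15-point, 3-fold dilution series (300 μM to 0.0002 μM) in DMSO. Kinetic absorbance at 360 nm read every minute for 10–20 min, initial velocity taken from the linear portion.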

[1] = molecular target: T2, CD73 on U138 human neuroglioma cells (Homo sapiens, UniProt P21589); assay: CD73 Cell-Based Assay (inorganic phosphate from AMP, malachite green); settings: AMP substrate, 2 hours at 37° C., read-out: CD73 Cell-Based assay IC50
T2 construct: U138 cells were obtained from ATCC and cultured in DMEM with 10% FBS; host or cells: U138 human neuroglioma cells
T2 sequence (P21589 27-549): T1 sequence (P21589 27-549)
In short: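 U138 cells, seeded the day before at 2500 per well, were washed and given AMP substrate (200 μM in the added mixture, before dilution into the buffer) together with compound. After 2 h at 37 °C in 5% CO2, inorganic phosphate in the supernatant was measured with malachite green.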

Row | Structure (SMILES) | IC50 (Human CD73) | IC50 [1]
1 | N#Cc1c(Cl)nc2c(ncn2[C@@H]2O[C@H](CS(=O)(=O)CP(=O)(O)O)[C@@H](O)[C@H]2O)c1N[C@H]1C[C@H](F)C1 [Compound 136] | 10 to 100 nM | < 10 nM
2 | N#Cc1nc2c(ccn2[C@@H]2O[C@H](CS(=O)(=O)CP(=O)(O)O)[C@@H](O)[C@H]2O)c(NC2CCC(F)(F)CC2)c1Cl [Compound 137] | < 10 nM | < 10 nM
3 | N#Cc1nc2c(ccn2[C@@H]2O[C@H](CS(=O)(=O)CP(=O)(O)O)[C@@H](O)[C@H]2O)c(N2C[C@@H](F)[C@@H](F)C2)c1Cl [Compound 138] | 10 to 100 nM | < 10 nM
4 | N#Cc1nc2c(ccn2[C@@H]2O[C@H](CS(=O)(=O)CP(=O)(O)O)[C@@H](O)[C@H]2O)c(NC2CC(F)(F)C2)c1Cl [Compound 142] | < 10 nM | < 10 nM
5 | N#Cc1nc2c(ccn2[C@@H]2O[C@H](CS(=O)(=O)CP(=O)(O)O)[C@@H](O)[C@H]2O)c(N2CCC(F)(F)C2)c1Cl [Compound 143] | < 10 nM | < 10 nM
6 | N#Cc1c(Cl)nc2c(cnn2[C@@H]2O[C@H](CS(=O)(=O)CP(=O)(O)O)[C@@H](O)[C@H]2O)c1N[C@H]1C[C@H](F)C1 [Compound 144, (((((2S,3S,4R,5R)-5-(6-chloro-5-cyano-4-(((1r,3R)-3-fluorocyclobutyl)amino)-1H-pyrazolo[3,4-b]pyridin-1-yl)-3,4-dihydroxytetrahydrofuran-2-yl)methyl)sulfonyl)methyl)phosphonic acid] | < 10 nM | < 10 nM
7 | N#Cc1c(Cl)nc2c(ccn2[C@@H]2O[C@H](CS(=O)(=O)CP(=O)(O)O)[C@@H](O)[C@H]2O)c1N[C@H]1C[C@@H](F)C1 [Compound 149] | < 10 nM | < 10 nM
8 | N#Cc1c(Cl)nc2c(cnn2[C@@H]2O[C@H](CS(=O)(=O)CP(=O)(O)O)[C@@H](O)[C@H]2O)c1N[C@H]1C[C@@H](F)C1 [Compound 150] | < 10 nM | < 10 nM
9 | N#Cc1c(Cl)nc2c(c(F)cn2[C@@H]2O[C@H](COCP(=O)(O)O)[C@@H](O)[C@H]2O)c1N1CCC(F)(F)C1 [Compound 151] | < 10 nM | < 10 nM
10 | N#Cc1c(Cl)nc2c(c(F)cn2[C@@H]2O[C@H](CS(=O)(=O)CP(=O)(O)O)[C@@H](O)[C@H]2O)c1N1CCC(F)(F)C1 [Compound 152] | < 10 nM | > 100 nM
11 | CN(c1c(C#N)c(Cl)nc2c1ccn2[C@@H]1O[C@H](COCP(=O)(O)O)[C@@H](O)[C@H]1O)C1CC(F)(F)C1 [Compound 153] | < 10 nM | 10 to 100 nM
12 | CN(c1c(C#N)c(Cl)nc2c1ccn2[C@@H]1O[C@H](CS(=O)(=O)CP(=O)(O)O)[C@@H](O)[C@H]1O)C1CC(F)(F)C1 [Compound 154] | < 10 nM | < 10 nM
13 | N#Cc1c(Cl)nc2c(ccn2[C@@H]2O[C@H](COCP(=O)(O)O)[C@@H](O)[C@H]2O)c1NC1CC2(CCC2)C1 [Compound 155] | < 10 nM | < 10 nM
14 | N#Cc1c(Cl)nc2c(ccn2[C@@H]2O[C@H](COCP(=O)(O)O)[C@@H](O)[C@H]2O)c1NC1CC2(CC2)C1 [Compound 157] | < 10 nM | < 10 nM
15 | N#Cc1c(Cl)nc2c(ccn2[C@@H]2O[C@H](CS(=O)(=O)CP(=O)(O)O)[C@@H](O)[C@H]2O)c1NC1CC2(CCC2)C1 [Compound 158] | < 10 nM | < 10 nM
16 | N#Cc1c(Cl)nc2c(ccn2[C@@H]2O[C@H](CS(=O)(=O)CP(=O)(O)O)[C@@H](O)[C@H]2O)c1NC1CC2(CC2)C1 [Compound 159] | < 10 nM | < 10 nM
17 | N#Cc1c(Cl)nc2c(c(F)cn2[C@@H]2O[C@H](COCP(=O)(O)O)[C@@H](O)[C@H]2O)c1NC1CC(F)(F)C1 [Compound 160] | < 10 nM | < 10 nM
18 | N#Cc1c(Cl)nc2c(c(F)cn2[C@@H]2O[C@H](CS(=O)(=O)CP(=O)(O)O)[C@@H](O)[C@H]2O)c1NC1CC(F)(F)C1 [Compound 162] | < 10 nM | < 10 nM
19 | N#Cc1c(Cl)nc2c(ccn2[C@@H]2O[C@H](CS(=O)(=O)CP(=O)(O)O)[C@@H](O)[C@@H]2F)c1NC1CC(F)(F)C1 [Compound 169] | < 10 nM | < 10 nM
20 | N#Cc1c(Cl)nc2c(ccn2[C@@H]2O[C@H](CS(=O)(=O)CP(=O)(O)O)[C@@H](O)[C@@H]2F)c1NC1CCCC1 [Compound 170] | < 10 nM | < 10 nM

Row | Structure (SMILES) | IC50 (Human CD73) | IC50 [1]
21 | N#Cc1c(Cl)nc2c(ccn2[C@@H]2O[C@H](CS(=O)(=O)CP(=O)(O)O)[C@@H](O)[C@@H]2F)c1N1CCC(F)(F)C1 [Compound 171] | < 10 nM | < 10 nM
22 | N#Cc1c(Cl)nc2c(ccn2[C@@H]2O[C@H](CS(=O)(=O)CP(=O)(O)O)[C@@H](O)[C@@H]2F)c1N [Compound 173] | 10 to 100 nM | > 100 nM
23 | N#Cc1nc2c(ccn2[C@@H]2O[C@H](CS(=O)(=O)CP(=O)(O)O)[C@@H](O)[C@@H]2F)c(NC2CC(F)(F)C2)c1C#N [Compound 174] | 10 to 100 nM | 10 to 100 nM
24 | N#Cc1nc2c(ccn2[C@@H]2O[C@H](CS(=O)(=O)CP(=O)(O)O)[C@@H](O)[C@H]2O)c(NC2CC(F)(F)C2)c1C#N [Compound 177] | < 10 nM | < 10 nM
25 | C[C@@H](Nc1c(C#N)c(Cl)nc2c1ccn2[C@@H]1O[C@H](CS(=O)(=O)CP(=O)(O)O)[C@@H](O)[C@H]1O)c1ccc(C#N)cc1 [Compound 178] | < 10 nM | < 10 nM
26 | C[C@@H](Nc1c(C#N)c(Cl)nc2c1ccn2[C@@H]1O[C@H](CS(=O)(=O)CP(=O)(O)O)[C@@H](O)[C@H]1O)c1cccc(C#N)c1 [Compound 179] | < 10 nM | < 10 nM
27 | C[C@H](Nc1c(C#N)c(Cl)nc2c1cnn2[C@@H]1O[C@H](CS(=O)(=O)CP(=O)(O)O)[C@@H](O)[C@H]1O)c1cccc(F)c1 [Compound 180] | < 10 nM | < 10 nM
28 | C[C@@H](Nc1c(C#N)c(Cl)nc2c1cnn2[C@@H]1O[C@H](CS(=O)(=O)CP(=O)(O)O)[C@@H](O)[C@H]1O)c1cccc(F)c1 [Compound 182] | < 10 nM | < 10 nM
29 | C[C@@H](Nc1c(C#N)c(Cl)nc2c1cnn2[C@@H]1O[C@H](CS(=O)(=O)CP(=O)(O)O)[C@@H](O)[C@H]1O)c1ccccc1F [Compound 183] | < 10 nM | < 10 nM
30 | C[C@H](Nc1c(C#N)c(Cl)nc2c1cnn2[C@@H]1O[C@H](CS(=O)(=O)CP(=O)(O)O)[C@@H](O)[C@H]1O)c1ccc(F)cc1 [Compound 184, (((((2S,3S,4R,5R)-5-(6-chloro-5-cyano-4-(((S)-1-(4-fluorophenyl)ethyl)amino)-1H-pyrazolo[3,4-b]pyridin-1-yl)-3,4-dihydroxytetrahydrofuran-2-yl)methyl)sulfonyl)methyl)phosphonic acid] | < 10 nM | < 10 nM
31 | C[C@H](Nc1c(C#N)c(Cl)nc2c1cnn2[C@@H]1O[C@H](CS(=O)(=O)CP(=O)(O)O)[C@@H](O)[C@H]1O)c1ccc(C#N)cc1 [Compound 185] | < 10 nM | < 10 nM
32 | C[C@H](Nc1c(C#N)c(Cl)nc2c1ccn2[C@@H]1O[C@H](CS(=O)(=O)CP(=O)(O)O)[C@@H](O)[C@H]1O)c1cccc(C#N)c1 [Compound 190] | < 10 nM | < 10 nM
33 | C[C@@H](Nc1c(C#N)c(Cl)nc2c1cnn2[C@@H]1O[C@H](CS(=O)(=O)CP(=O)(O)O)[C@@H](O)[C@H]1O)c1ccc(F)cc1 [Compound 191] | < 10 nM | < 10 nM
34 | C[C@@H](Nc1c(C#N)c(Cl)nc2c1cnn2[C@@H]1O[C@H](CS(=O)(=O)CP(=O)(O)O)[C@@H](O)[C@H]1O)c1ccc(C#N)cc1 [Compound 192] | 10 to 100 nM | 10 to 100 nM
35 | C[C@@H](Nc1c(C#N)c(Cl)nc2c1cnn2[C@@H]1O[C@H](CS(=O)(=O)CP(=O)(O)O)[C@@H](O)[C@H]1O)c1cccc(C#N)c1 [Compound 193] | < 10 nM | < 10 nM
36 | C[C@H](Nc1c(C#N)c(Cl)nc2c1ccn2[C@@H]1O[C@H](CS(=O)(=O)CP(=O)(O)O)[C@@H](O)[C@H]1O)c1ccc(C#N)cc1 [Compound 198] | < 10 nM | < 10 nM
37 | C[C@H](Nc1c(C#N)c(Cl)nc2c1cnn2[C@@H]1O[C@H](CS(=O)(=O)CP(=O)(O)O)[C@@H](O)[C@H]1O)c1ccccc1F [Compound 199] | < 10 nM | < 10 nM
38 | C[C@H](Nc1c(C#N)c(Cl)nc2c1cnn2[C@@H]1O[C@H](CS(=O)(=O)CP(=O)(O)O)[C@@H](O)[C@H]1O)c1cccc(C#N)c1 [Compound 200] | < 10 nM | < 10 nM
39 | N#Cc1nc2c(ccn2[C@@H]2O[C@H](COP(=O)(O)CP(=O)(O)O)[C@@H](O)[C@H]2O)c(NC2CC3(CC3)C2)c1Cl [Compound 206] | < 10 nM | < 10 nM
40 | CC(C)Nc1c(C#N)c(Cl)nc2c1ccn2[C@@H]1O[C@H](COP(=O)(O)CP(=O)(O)O)[C@@H](O)[C@H]1O [Compound 207] | < 10 nM | < 10 nM
